Numbered stars: 1 amine (or outer) side, 2 acyl side, 3 side chain; on linkers, the order of the positions; unused ones are H or OH. Bridge positions count the residues as written; N and C are the ends. Square brackets hold non-standard residues; d marks the D form. Peptide text beside a SMILES is read from it. X1 = O=C(CC1(S[*:2])CCCCC1)[*:1]; Abu = CC[C@H](N)C(=O)O
Key:
[1] = molecular target: T1, vasopressin stimulated adenylate cyclase (Sus scrofa, UniProt P32307); test: Vasopressin stimulated adenylate cyclase activity in kidney medullary membrane; format: biochemical; settings: In Vitro (Pig); antagonism of vasopressin stimulated adenylate cyclase, medullary tissue
T1 construct: in the medullary tissue of hog or human kidneys; from tissue; host or cells: kidney medullary membranes (hog or human)
T1 sequence (P32307 whole entry): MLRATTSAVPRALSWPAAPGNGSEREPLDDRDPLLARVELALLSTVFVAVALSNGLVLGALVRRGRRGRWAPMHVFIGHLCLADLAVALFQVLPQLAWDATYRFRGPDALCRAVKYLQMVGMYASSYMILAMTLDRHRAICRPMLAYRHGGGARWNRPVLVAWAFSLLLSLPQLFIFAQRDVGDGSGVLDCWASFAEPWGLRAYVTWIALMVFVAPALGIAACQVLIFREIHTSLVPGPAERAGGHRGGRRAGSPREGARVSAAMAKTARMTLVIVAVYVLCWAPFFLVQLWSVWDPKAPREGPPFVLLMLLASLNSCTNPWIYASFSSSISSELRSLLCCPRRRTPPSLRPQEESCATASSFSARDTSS
Experimental: In the test procedure for assay of adenylate cyclase activity, the amount of ^32 P/cAMP formed in the absence of medullary membrane is determined (blank). The blank value is subtracted from all experimental data. The compound is tested for its effect on basal adenylate cyclase activity and/or on vasopressin stimulated activity. Each determination is carried out in triplicate. The Ka value is derived from a Lineweaver-Burkeplot. Rel. Vmax =(Vmax drug/Vmax vasopressin)×100. Ki =I/[Ka'/Ka)-1] where I is the concentration of the antagonist, and Ka' and Ka are the concentrations of vasopressin required to give half maximal activity of adenylate cyclase in the presence and absence of antagonist, respectively.

[2] = molecular target: T2, vasopressin receptors [V2 -receptors] (Sus scrofa, UniProt P32307); test: 3H-vasopressin binding assay, hog kidney membranes; settings: In Vitro (Pig); competitive inhibition of 3H-vasopressin binding; read-out: BB
T2 construct: average KD value determined on 3 preparations of hog kidney membranes; from tissue; host or cells: hog kidney medullary membranes
T2 sequence (P32307 whole entry): as above
Experimental: In the test procedure for binding assays, the amount of ^3 H-vasopressin bound in the absence and in the presence of an excess of vasopressin (7.5×10^-6 M) is measured in triplicate. These values represent total and non-specific binding, respectively.

hydropenic rat = test: Hydropenic rat screen (anti-ADH activity in vivo); settings: estimated dose of peptide delivered ip which reduces Uosm from hydropenic levels to 300 mOsmoles/kg H2O
Experimental: Antagonistic activity toward the natural antidiuretic hormone (anti-ADH activity) is determined, in vitro, in the medullary tissue of hog or human kidneys and, in vivo, in the hydropenic rat. The in vitro assay procedures for vasopressin stimulated adenylate cyclase activation or vasopression binding activity are described by F. Stassen et al., J. Pharmacology and Experimental Therapeutics, 223, 50-54 (1982).
The assay for anti-ADH activity is the hydropenic rat protocol is described below:
Food and water are removed from male rats approximately 18 hours prior to testing. Animals are housed 4 per metabolism cage. At 0 hour, the test compound is administered intraperitoneally to the test group and an equivalent volume of vehicle is administered to both control groups (fasted and non-fasted). Urine volume and osmolality are measured every hour for 4 hours. Test values are recorded as ml of urine excreted (cumulative), mEq/rat electrolyte excreted, mg/rat urea excreted, and osmolality in milli-Osmoles/kg H2 O. A tolerance test is used to determine significance. ED300 is defined as the dose of compound (μg/kg) required to lower urine osmolality to 300 m-Osmoles/kg.

Ki [1] [nM] | Ki [2] [nM] | SMILES | ED300 (hydropenic rat) [mg/kg]
2.5 | 9000 | CCOc1ccc(C[C@H]2NC(=O)CC3(CCCCC3)SSC[C@@H](C(=O)N[C@@H](CCCNC(=N)N)C(N)=O)NC(=O)[C@H](CC(N)=O)NC(=O)[C@H](C(C)C)NC(=O)[C@H](Cc3ccccc3)NC2=O)cc1 [A] ([dY](Et)FVNCR-NH2; linker N-5 via X1) | 
6.2 |  | CCOc1ccc(C[C@H]2NC(=O)CC3(CCCCC3)SSC[C@@H](C(=O)N[C@@H](CCCNC(=N)N)C(N)=O)NC(=O)[C@H](CC(N)=O)NC(=O)[C@H](CC)NC(=O)[C@H](Cc3ccccc3)NC2=O)cc1 [B, 1(mercapto-β,cyclopentamethylenepropionic acid)2-(O--ethylD-tyrosine)-4-aminobutyric acid7-desproline-8-arginine-9-desglycinevasopressin] ([dY](Et)F[Abu]NCR-NH2; linker N-5 via X1) | 0.1218

SMILES | Ki [1] [nM] | Ki [2] [nM] | ED300 (hydropenic rat) [mg/kg]
CCOc1ccc(C[C@H]2NC(=O)CC3(CCCCC3)SSC[C@@H](C(=O)N3CCC[C@H]3C(=O)N[C@@H](CCCNC(=N)N)C(=O)NCC(N)=O)NC(=O)[C@H](CC(N)=O)NC(=O)[C@H](C(C)C)NC(=O)[C@H](Cc3ccccc3)NC2=O)cc1 [C, [mercapto-β,cyclopentamethylenepropionic acid)2-(O--ethylD-tyrosine)-4-valine-8-argininevasopressin, reference compound] ([dY](Et)FVNCPRG-NH2; linker N-5 via X1 (inferred); C-terminus assumed) | 9.8 |  | 0.011
